These results are taken from patent publication US11110158B2, “Prostate-associated antigens and vaccine-based immunotherapy regimens” (Pfizer Inc., priority 2012, dated 2021).

One experiment relates to native PSMA protein. Briefly: Sandwich ELISA, anti-PSMA antibody titers in serum of vaccinated Pasteur mice. Format: in vivo, mouse. Here is the method: The standard sandwich ELISA assay was done using an automated Biotek system. The plates were coated with 25 μl of native PSMA protein at a 1.0 μg/ml in PBS overnight, the plates were washed and blocked with 35 μl/well of 5% FBS 1×PBS-T 0.05% and incubated for 1 hour at RT on a shaker at 600 RPM. The blocking media was decanted and serial dilute vaccinated mouse serum with half log dilutions in 5% FBS 1×PBS-T 0.05% starting at 1:100 or 1:500 were made and 25μ samples of the diluted serum were added to each well of the 96 well plates and incubated for 1 hour at RT on a shaker at 600 RPM. The plates were washed 3 times with 75 ul/well in 1×PBS-T 0.05% using the Biotek ELx405, and 25 μl/well of 1:30,000 diluted anti-mouse IgG HRP (AbCam cat #ab20043) secondary antibody (diluted in 1×PBS-T 0.05%) was added to each well of the 96 well plates and incubated for 1 hour at RT on a shaker at 600 RPM. Plates were washed 5× with 75 ul/well in 1×PBS-T 0.05% using the Biotek EIx405. TMB Substrate was diluted at 1:10 and 25 μl was added to each well and incubated at RT for 30 minutes. The reaction was stopped by adding 12.5 μl/well of 1M H2SO4. Plates were read using the Spectramax Plus at 450 nm wavelength. Data were reported as titers and these could be reported as first positive (average and both values above 5% FBS PBS+3 time Standard Deviation) and/or as calculated titers at OD of 0.5 or 1.0. Serum from irrelevant vaccinated mice were used as negative controls.
Eight- to 10-week old Pasteur mice were immunized using PMED method with the various plasmid DNAs expressing shuffled PSMA modified antigens in a prime/boost/boost regimen, two weeks apart between each vaccination as described in Example 1F. Antigen specific T and B cell responses were measured 7 days after the last immunization in an interferon-gamma (IFNγ) ELISPOT assay and sandwich ELISA respectively.
For orientation: An ELISA detects its analyte on a solid surface through an enzyme-linked reagent.

For a further experiment, the system named is LNCaP. The experiment can be described thus: FACS cell binding assay of sera from PSMA vaccinated mice. Type of experiment: cell-based, human. As to conditions: Table 4. As for the experimental part:
Various prostate cancer cell lines were used for this assay. […] The cell binding assay was performed as follows: LNCaP and PC3 cells (or TRAMP-C2PSMA and TRAMP C2) were plated in separate wells at 2×10^5 cells/well (50 μL) in a 96 well plate. Sera from PSMA vaccinated mice, as described in […], were diluted 1:50 with FACS buffer (PBS pH 7.4, 1% FBS, 25 mM HEPES, and 1 mM EDTA). Fifty μL of diluted J591-A antibody (mouse anti-human PSMA antibody, clone J591-A from ATCC) were added to the diluted test sera or FACS buffer (unstained samples) to achieve the appropriate cell numbers per well in the staining plate. All was mixed by pipetting and then kept on ice for 20 min. The cells were washed twice with FACS buffer; each wash was by centrifugation at 1200 RPM at 5° C. for 5 minutes. Fifty μL of secondary staining solution were added containing a 1:200 dilution of PE-labeled goat anti-mouse Ig (Sigma, cat P9670-5) and 0.25 μl of Live/Dead Aqua stain (Invitrogen, cat. #L34957) to each of the cell containing wells and kept on ice for 20 min. Cells were washed twice as described earlier. Washed cell pellets were resuspended in 125 uL FACS buffer and then 75 uL 4% paraformaldehyde solution were added to each well to fix the cells. Samples were kept on ice and protected from light for at least 15 min. Samples were run on FACS Canto II. Ten thousand live cell events were recorded for each sample. […]

The subject of experiment [1] is hPSMA full-length protein. The experiment can be described thus: IFN-γ ELISPOT, hPSMA modified versus full-length DNA vaccine in C57BL/6 mice. Format: in vivo, human. As to conditions: Example 7, FIG. 26; C57BL/6, PMED days 0, 14, 28; day 35. An excerpt:
The immune responses induced by DNA vaccination using a construct encoding an immunogenic PSMA polypeptide (the “human PSMA modified antigen” or “hPSMA modified”) consisting 15-750 amino acids (aa) of the native human PSMA protein of SEQ ID NO: 1 were compared with those induced by the native human full-length PSMA protein (hPSMA full length). Groups of female C57BL/6 mice or female Pasteur (HLA-A2/DR1) transgenic mice were primed on day 0 and boosted on days 14, 28 by PMED administration with a 2 μg dose of a DNA vaccine encoding either hPSMA full-length or hPSMA modified protein. Mice were bled and sacrificed on day 35 (7 days after the third vaccination) and T cell immune responses against the hPSMA full-length protein were determined in splenocytes by IFN-γ ELISPOT assay. For C57BL/6 mice, single cell suspensions of 5×10^5 splenocytes from individual animals were plated per well with […] purified hPSMA protein, 5×10^4 TRAMP-C2 cells alone, or TRAMP-C2 cells expressing hPSMA or a PSMA-PSA-PSCA fusion protein. […] Responses in Pasteur mice were also determined using 10 μg/ml purified PSMA protein or 5×10^4 SK-Mel5 cells that had been transduced with Adenoviral vectors expressing a control protein (Ad-eGFP) or the full-length human PSMA protein (Ad-hPSMA). […] The number of IFN-γ SFC was counted by a CTL reader. […]

With “PSMA modified: membrane-bound polypeptide of amino acids 15-750 of human PSMA, SEQ ID NO: 9; tested as DNA construct”, the “ELISA (OD = 1) Average (+/−SD)” value in the experiment on native PSMA protein (Table 3, anti-PSMA antibody titer calculated at OD of 1, Pasteur mice) is reported as 1067 (518). Moreover, the “# of positive” value with native PSMA protein (Table 3, mice with anti-PSMA antibody response by ELISA / N) is 4/4; with native PSMA protein (Table 10, mice with anti-PSMA antibody response by ELISA / mice tested) it was 7/7; in the experiment with LNCaP (mice with serum binding to LNCaP by FACS / N), 4/4. For the same substance, the “ELISA (OD = 0.5)” value in the experiment on native PSMA protein (Table 10, anti-PSMA antibody titer calculated at OD of 0.5, Pasteur mice) was 1159 (802). The “Fold over background Average (+/−SD)” value with LNCaP (binding of serum anti-PSMA antibodies (1:50) to human prostate cancer cells LNCaP by FACS, background PC3) is listed as 6.01 (0.38). For the same substance, the “IFN-γ T cell responses to TRAMP C2-PSMA or purified hPSMA protein” value in experiment [1] is “equivalent T cell immune responses”.
